For assay [1], the target named is T1, GHRH receptor (human pituitary membrane homogenates) (Homo sapiens, UniProt Q02643).
T1 sequence (Q02643 23-423): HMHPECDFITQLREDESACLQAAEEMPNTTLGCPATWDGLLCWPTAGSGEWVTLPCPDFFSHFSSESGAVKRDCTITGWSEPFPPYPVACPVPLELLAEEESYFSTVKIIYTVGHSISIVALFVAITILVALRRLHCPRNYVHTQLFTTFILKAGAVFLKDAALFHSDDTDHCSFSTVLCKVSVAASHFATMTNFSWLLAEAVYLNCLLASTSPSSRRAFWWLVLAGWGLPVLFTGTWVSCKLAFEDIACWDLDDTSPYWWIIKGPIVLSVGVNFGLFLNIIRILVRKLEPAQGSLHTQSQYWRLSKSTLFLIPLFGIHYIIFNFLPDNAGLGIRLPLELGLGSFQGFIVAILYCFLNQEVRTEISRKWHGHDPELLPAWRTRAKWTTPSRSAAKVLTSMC
The assay is described as follows: GHRH receptor binding, ligand competition with 125I-labeled [His1,Nle27]hGHRH(1-32)NH2 (Table 6). The note with it: for Relative affinitiy (Binding potency) vs GHRH: GHRH(1-29) = 1.

A further assay deals with GH level. The assay can be described thus: In vivo endocrine activity (GH release), subcutaneous administration. Particulars: rat; for GH releasing potency relative to JI-38 (=1): s.c. injection. The procedure: Subcutaneous Administration. Adult male rats were used and anesthetized with pentobarbital (6 mg/100 g, b.w.), by i.p. injection. […] Blood samples were taken from the jugular vein 5, 15 and/or 30 minutes after the injection. The blood samples were centrifuged, plasma was removed and the GH level was measured by ELISA. The results are summarized in terms of potency in Table 9.

The target of assay [2] is T1, GHRH receptor (human pituitary membrane homogenates). The assay is described as follows: GHRH receptor binding, ligand competition with 125I-labeled JV-1-42 (Table 7). Also noted: Normal human pituitaries were purchased from the National Hormone and Peptide Program; tissue National Hormone and Peptide Program (A. F. Parlow, Harbor-UCLA Medical Center, Torrance, Calif.); host or cells: normal human pituitary, membrane fraction / homogenate. The note with it: JI-38 = 1.

Non-standard residues stand in square brackets, D forms with d. Residues, ends and D or L forms follow the SMILES beside them. *: point of attachment. Phe(F5) = N[C@@H](Cc1c(F)c(F)c(F)c(F)c1F)C(=O)O; Desaminotyrosyl = O=C(CCc1ccc(O)cc1)*; NMeY = CN[C@@H](Cc1ccc(O)cc1)C(=O)O; Agmatine = N=C(N)NCCCCN*; Nle = CCCC[C@H](N)C(=O)O; Orn = NCCC[C@H](N)C(=O)O; Abu = CC[C@H](N)C(=O)O; Aoc = NCCCCCCCC(=O)O; Ava = NCCCCC(=O)O; GABA = NCCCC(=O)O

Turning to `CCCC[C@H](NC(=O)[C@@H](NC(=O)[C@H](CC(=O)O)NC(=O)[C@H](CCC(N)=O)NC(=O)[C@H](CC(C)C)NC(=O)[C@H](CC(C)C)NC(=O)[C@H](CCCN)NC(=O)[C@H](CCCNC(=N)N)NC(=O)[C@H](C)NC(=O)[C@H](CO)NC(=O)[C@H](CC(C)C)NC(=O)[C@H](CCC(N)=O)NC(=O)[C@H](CC)NC(=O)[C@H](CC(C)C)NC(=O)[C@@H](NC(=O)[C@H](CCCN)NC(=O)[C@H](CCCNC(=N)N)NC(=O)[C@H](Cc1ccc(O)cc1)NC(=O)[C@H](CO)NC(=O)[C@H](CC(N)=O)NC(=O)[C@@H](NC(=O)[C@H](Cc1ccccc1)NC(=O)[C@@H](NC(=O)[C@H](C)NC(=O)[C@H](CC(=O)O)NC(=O)[C@H](C)NC(=O)CCc1ccc(O)cc1)[C@@H](C)CC)[C@@H](C)O)C(C)C)[C@@H](C)CC)C(=O)N[C@@H](CC(=O)O)C(=O)NCCCCNC(=N)N` [JI-34, reference compound] (Desaminotyrosyl-ADAIFTNSYR[Orn]VL[Abu]QLSAR[Orn]LLQDI[Nle]D-Agmatine; N-terminus and C-terminus assumed), in assay [1], the “Relative affinitiy (Binding potency) vs GHRH” value (from here on “Relative affinitiy … vs GHRH”) is reported as 4.32.

Take `CCCC[C@H](NC(=O)[C@@H](NC(=O)[C@H](CC(=O)O)NC(=O)[C@H](CCC(N)=O)NC(=O)[C@H](CC(C)C)NC(=O)[C@H](CC(C)C)NC(=O)[C@H](CCCN)NC(=O)[C@H](CCCNC(=N)N)NC(=O)[C@H](C)NC(=O)[C@H](CO)NC(=O)[C@H](CC(C)C)NC(=O)[C@H](CCC(N)=O)NC(=O)[C@H](CC)NC(=O)[C@H](CC(C)C)NC(=O)[C@@H](NC(=O)[C@H](CCCN)NC(=O)[C@H](CCCNC(=N)N)NC(=O)[C@H](Cc1ccc(O)cc1)NC(=O)[C@H](CO)NC(=O)[C@@H](NC(=O)[C@@H](NC(=O)[C@H](Cc1ccccc1)NC(=O)[C@@H](NC(=O)[C@H](C)NC(=O)[C@H](CC(=O)O)NC(=O)[C@H](C)NC(=O)CCc1ccc(O)cc1)[C@@H](C)CC)[C@@H](C)O)[C@@H](C)O)C(C)C)[C@@H](C)CC)C(=O)N[C@@H](CC(=O)O)C(=O)NCCCCNC(=N)N` [JI-36, reference compound] (Desaminotyrosyl-ADAIFTTSYR[Orn]VL[Abu]QLSAR[Orn]LLQDI[Nle]D-Agmatine; N-terminus and C-terminus assumed): the “Relative affinitiy … vs GHRH” value in assay [1] turned out to be 3.25.

With `CCCC[C@H](NC(=O)[C@@H](NC(=O)[C@H](CC(=O)O)NC(=O)[C@H](CCC(N)=O)NC(=O)[C@H](CC(C)C)NC(=O)[C@H](CC(C)C)NC(=O)[C@H](CCCN)NC(=O)[C@H](CCCNC(=N)N)NC(=O)[C@H](C)NC(=O)[C@H](CO)NC(=O)[C@H](CC(C)C)NC(=O)[C@H](CCC(N)=O)NC(=O)[C@H](CC)NC(=O)[C@H](CC(C)C)NC(=O)[C@@H](NC(=O)[C@H](CCCN)NC(=O)[C@H](CCCNC(=N)N)NC(=O)[C@H](Cc1ccc(O)cc1)NC(=O)[C@H](CO)NC(=O)[C@H](CCC(N)=O)NC(=O)[C@@H](NC(=O)[C@H](Cc1ccccc1)NC(=O)[C@@H](NC(=O)[C@H](C)NC(=O)[C@H](CC(=O)O)NC(=O)[C@@H](C)NC(=O)CCc1ccc(O)cc1)[C@@H](C)CC)[C@@H](C)O)C(C)C)[C@@H](C)CC)C(=O)N[C@@H](CC(=O)O)C(=O)N[C@@H](CCCNC(=N)N)C(=O)NCCCCCCCC(N)=O` [Peptide P-21304, [Dat^1, D-Ala^2, Gln^8, Orn^12, Abu^15, Orn^21, Nle^27, Asp^28, Amc^30]hGHRH(1-30)NH2] (Desaminotyrosyl-[dA]DAIFTQSYR[Orn]VL[Abu]QLSAR[Orn]LLQDI[Nle]DR[Aoc]-NH2), in assay [1], the “Relative affinitiy … vs GHRH” value worked out at 74.0. The “Relative affinitiy (Binding potency) vs JI-38” value (“Relative affinitiy … vs JI-38” for short) in assay [1] (JI-38 = 1) was determined as 24.4.

For `CCCC[C@H](NC(=O)[C@@H](NC(=O)[C@H](CC(=O)O)NC(=O)[C@H](CCC(N)=O)NC(=O)[C@H](CC(C)C)NC(=O)[C@H](CC(C)C)NC(=O)[C@H](CCCN)NC(=O)[C@H](CCCNC(=N)N)NC(=O)[C@H](C)NC(=O)[C@H](CO)NC(=O)[C@H](CC(C)C)NC(=O)[C@H](CCC(N)=O)NC(=O)[C@H](CC)NC(=O)[C@H](CC(C)C)NC(=O)[C@@H](NC(=O)[C@H](CCCN)NC(=O)[C@H](CCCNC(=N)N)NC(=O)[C@H](Cc1ccc(O)cc1)NC(=O)[C@H](CO)NC(=O)[C@H](CCC(N)=O)NC(=O)[C@@H](NC(=O)[C@H](Cc1ccccc1)NC(=O)[C@@H](NC(=O)[C@H](C)NC(=O)[C@H](CC(=O)O)NC(=O)[C@@H](C)NC(=O)[C@H](Cc1ccc(O)cc1)NC)[C@@H](C)CC)[C@@H](C)O)C(C)C)[C@@H](C)CC)C(=O)N[C@@H](CC(=O)O)C(=O)N[C@@H](CCCNC(=N)N)C(=O)NCCCCC(N)=O` [Peptide P-22326, [N—Me-Tyr^1, D-Ala^2, Gln^8, Orn^12, Abu^15, Orn^21, Nle^27, Asp^28, Apa^30]hGHRH(1-30)NH2] (H-[NMeY][dA]DAIFTQSYR[Orn]VL[Abu]QLSAR[Orn]LLQDI[Nle]DR[Ava]-NH2), the “Stimulation of growth hormone levels after s.c. administration (comparison in words)” value (“Stimulation of growth hormone levels” below) in the assay with GH level is reported as “stimulated greater growth hormone levels than hGHRH or JI-38”. In assay [2], the “Relative affinitiy … vs JI-38” value stood at 6.12.

As to `CCCC[C@H](NC(=O)[C@@H](NC(=O)[C@H](CC(=O)O)NC(=O)[C@H](CCC(N)=O)NC(=O)[C@H](CC(C)C)NC(=O)[C@H](CC(C)C)NC(=O)[C@H](CCCN)NC(=O)[C@H](CCCNC(=N)N)NC(=O)[C@H](C)NC(=O)[C@H](CO)NC(=O)[C@H](CC(C)C)NC(=O)[C@H](CCC(N)=O)NC(=O)[C@H](CC)NC(=O)[C@H](CC(C)C)NC(=O)[C@@H](NC(=O)[C@H](CCCN)NC(=O)[C@H](CCCNC(=N)N)NC(=O)[C@H](Cc1ccc(O)cc1)NC(=O)[C@H](CO)NC(=O)[C@H](CC(N)=O)NC(=O)[C@@H](NC(=O)[C@H](Cc1ccccc1)NC(=O)[C@@H](NC(=O)[C@H](C)NC(=O)[C@H](CC(=O)O)NC(=O)[C@@H](C)NC(=O)[C@H](Cc1ccc(O)cc1)NC)[C@@H](C)CC)[C@@H](C)O)C(C)C)[C@@H](C)CC)C(=O)N[C@@H](CO)C(=O)N[C@@H](CCCNC(=N)N)C(=O)NCCCC(N)=O` [Peptide P-25501, [N—Me-Tyr^1, D-Ala^2, Orn^12, Abu^15, Orn^21, Nle^27, Gab^30]hGHRH(1-30)NH2] (H-[NMeY][dA]DAIFTNSYR[Orn]VL[Abu]QLSAR[Orn]LLQDI[Nle]SR[GABA]-NH2), the “Stimulation of growth hormone levels” value in the assay with GH level is listed as “stimulated greater growth hormone levels than hGHRH or JI-38”. Moreover, in assay [2], the “Relative affinitiy … vs JI-38” value was determined as 4.07.

Regarding `CCCC[C@H](NC(=O)[C@@H](NC(=O)[C@H](CC(=O)O)NC(=O)[C@H](CCC(N)=O)NC(=O)[C@H](CC(C)C)NC(=O)[C@H](CC(C)C)NC(=O)[C@H](CCCN)NC(=O)[C@H](CCCNC(=N)N)NC(=O)[C@H](C)NC(=O)[C@H](CO)NC(=O)[C@H](CC(C)C)NC(=O)[C@H](CCC(N)=O)NC(=O)[C@H](CC)NC(=O)[C@H](CC(C)C)NC(=O)[C@@H](NC(=O)[C@H](CCCN)NC(=O)[C@H](CCCNC(=N)N)NC(=O)[C@H](Cc1ccc(O)cc1)NC(=O)[C@H](CO)NC(=O)[C@H](CC(N)=O)NC(=O)[C@@H](NC(=O)[C@H](Cc1c(F)c(F)c(F)c(F)c1F)NC(=O)[C@@H](NC(=O)[C@H](C)NC(=O)[C@H](CC(=O)O)NC(=O)[C@@H](C)NC(=O)[C@H](Cc1ccc(O)cc1)NC)[C@@H](C)CC)[C@@H](C)O)C(C)C)[C@@H](C)CC)C(=O)N[C@@H](CC(=O)O)C(=O)N[C@@H](CCCNC(=N)N)C(=O)NC` [Peptide P-27404, [N—Me-Tyr^1, D-Ala^2, Fpa5^6, Orn^12, Abu^15, Orn^21, Nle^27, Asp^28]hGHRH(1-29)NH—CH3] (H-[NMeY][dA]DAI[Phe(F5)]TNSYR[Orn]VL[Abu]QLSAR[Orn]LLQDI[Nle]DR-NHMe), the “Stimulation of growth hormone levels” value with GH level was “stimulated greater growth hormone levels than hGHRH or JI-38”. The “GH releasing potency relative to JI-38 (=1)” value turned out to be 2.07 with GH level (15 min after) and 1.47 in the assay with GH level (30 min after). Also, in assay [2], the “Relative affinitiy … vs JI-38” value worked out at 5.00.

With `CCCC[C@H](NC(=O)[C@@H](NC(=O)[C@H](CC(=O)O)NC(=O)[C@H](CCC(N)=O)NC(=O)[C@H](CC(C)C)NC(=O)[C@H](CC(C)C)NC(=O)[C@H](CCCN)NC(=O)[C@H](CCCNC(=N)N)NC(=O)[C@H](C)NC(=O)[C@H](CO)NC(=O)[C@H](CC(C)C)NC(=O)[C@H](CCC(N)=O)NC(=O)[C@H](CC)NC(=O)[C@H](CC(C)C)NC(=O)[C@@H](NC(=O)[C@H](CCCN)NC(=O)[C@H](CCCNC(=N)N)NC(=O)[C@H](Cc1ccc(O)cc1)NC(=O)[C@H](CO)NC(=O)[C@H](CC(N)=O)NC(=O)[C@@H](NC(=O)[C@H](Cc1ccccc1)NC(=O)[C@@H](NC(=O)[C@H](C)NC(=O)[C@H](CC(=O)O)NC(=O)[C@@H](C)NC(=O)[C@H](Cc1ccc(O)cc1)NC)[C@@H](C)CC)[C@@H](C)O)C(C)C)[C@@H](C)CC)C(=O)N[C@@H](CC(=O)O)C(=O)N[C@@H](CCCNC(=N)N)C(=O)NC` [Peptide P-27409, [N—Me-Tyr^1, D-Ala^2, Orn^12, Abu^15, Orn^21, Nle^27, Asp^28]hGHRH(1-29)NH—CH3] (H-[NMeY][dA]DAIFTNSYR[Orn]VL[Abu]QLSAR[Orn]LLQDI[Nle]DR-NHMe), the “Stimulation of growth hormone levels” value in the assay on GH level is given as “stimulated greater growth hormone levels than hGHRH or JI-38”. The “Relative affinitiy … vs JI-38” value in assay [2] stood at 4.10.
